Measured values taken from ChEMBL document CHEMBL3585290, “Synthesis and biological evaluation of novel bivalent -carbolines as potential antitumor agents” (Medchemcomm, 2014).

Assays:
[1] = system: KB; experiment: Cytotoxicity against human KB cells after 48 hrs by MTT assay; assay type: functional, cell-based
[2] = system: A-375; experiment: Cytotoxicity against human A375 cells after 48 hrs by MTT assay; assay type: functional, cell-based; settings: A-375, 48 h
[3] = system: Lewis lung carcinoma cell line; experiment: Antitumor activity against mouse LLC cells implanted in mouse assessed as tumor growth inhibition at 212.1 umol/kg, ip qd administered for 7 days starting 24 hrs post tumor implantation measured after day 21 relative to control; assay type: functional; settings: read-out: TGI
[4] = system: SK-OV-3; experiment: Cytotoxicity against human SKOV3 cells after 48 hrs by MTT assay; assay type: functional, cell-based; settings: SK-OV-3, 48 h
[5] = Acute toxicity in ip dosed C57BL/6 mouse measured for 14 days; assay type: organism-based; settings: in vivo
[6] = system: CT26; experiment: Antitumor activity against mouse CT26 cells implanted in mouse assessed as tumor growth inhibition at 212.1 umol/kg, ip qd administered for 7 days starting 24 hrs post tumor implantation measured after day 21 relative to control; assay type: functional; settings: read-out: TGI
[7] = Cytotoxicity against human BGC823 cells after 48 hrs by MTT assay; assay type: functional, cell-based; settings: BGC-823, 48 h
[8] = system: 769-P; experiment: Cytotoxicity against human 769-P cells after 48 hrs by MTT assay; assay type: functional, cell-based
[9] = system: Lewis lung carcinoma cell line; experiment: animal or person; settings: Mus musculus, ip, read-out: TGI
Description: Antitumor activity against mouse LLC cells implanted in mouse assessed as tumor growth inhibition at 114.9 umol/kg, ip qd administered for 7 days starting 24 hrs post tumor implantation measured after day 21 relative to control

[10] = system: CT26; experiment: animal or person; settings: Mus musculus, CT26, ip, read-out: TGI
Description: Antitumor activity against mouse CT26 cells implanted in mouse assessed as tumor growth inhibition at 114.9 umol/kg, ip qd administered for 7 days starting 24 hrs post tumor implantation measured after day 21 relative to control

SMILES | IC50 [1] | IC50 [2] | inhibition in vivo at 212.1 µmol/kg [3] | IC50 [4] | LD50 at 336 h [5] | inhibition in vivo at 212.1 µmol/kg [6] | IC50 [7] | IC50 [8] | inhibition in vivo at 114.9 µmol/kg [9] | inhibition in vivo at 114.9 µmol/kg [10]
O=C(O)c1cc2c3ccccc3n(CCCc3ccccc3)c2cn1 | 86.4 µM | 67.6 µM | 40.3% | > 200 µM | 1090 µmol/kg | 20.3% | 36.7 µM | 56.8 µM | – | –
O=P1(N(CCCl)CCCl)NCCCO1 (stereo not given) [CYCLOPHOSPHAMIDE ANHYDROUS] | – | – | – | – | – | – | – | – | 88.1% | 87.6%
